Results taken from ChEMBL document CHEMBL1641405, “Click chemistry inspired one-pot synthesis of 1,4-disubstituted 1,2,3-triazoles and their Src kinase inhibitory activity” (Bioorg Med Chem Lett, 2011).

How the values were obtained:
[1] = target: T1, Proto-oncogene tyrosine-protein kinase Src (Homo sapiens, UniProt P12931); assay: Inhibition of c-Src at 75 uM after 60 mins
[2] = target: T1, Proto-oncogene tyrosine-protein kinase Src; assay: Inhibition of c-Src after 60 mins
[3] = target: Tyrosine-protein kinase CSK (Homo sapiens) (UniProt P41240); assay: Inhibition of human Cck
[4] = target: Epidermal growth factor receptor (Homo sapiens, UniProt P00533); assay: Inhibition of human EGFR
[5] = target: Tyrosine-protein kinase Lck (Homo sapiens, UniProt P06239); assay: Inhibition of human activated Lck
Tyrosine-protein kinase Lck, sequence (P06239 whole entry): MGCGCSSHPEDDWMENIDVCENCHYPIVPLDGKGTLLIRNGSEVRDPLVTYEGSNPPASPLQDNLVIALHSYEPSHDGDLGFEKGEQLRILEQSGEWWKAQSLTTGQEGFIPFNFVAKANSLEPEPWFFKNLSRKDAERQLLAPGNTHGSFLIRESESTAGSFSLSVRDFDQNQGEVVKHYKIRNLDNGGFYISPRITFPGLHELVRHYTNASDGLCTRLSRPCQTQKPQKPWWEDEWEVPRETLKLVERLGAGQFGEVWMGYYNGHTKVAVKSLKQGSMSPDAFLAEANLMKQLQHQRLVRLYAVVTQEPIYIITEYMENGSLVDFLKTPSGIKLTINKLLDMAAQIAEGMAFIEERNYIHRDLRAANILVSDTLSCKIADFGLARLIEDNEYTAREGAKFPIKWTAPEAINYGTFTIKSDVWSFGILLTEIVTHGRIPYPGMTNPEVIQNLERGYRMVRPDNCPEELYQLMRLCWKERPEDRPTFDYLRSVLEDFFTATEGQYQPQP

T1 sequence (P12931 2-536 limits assumed): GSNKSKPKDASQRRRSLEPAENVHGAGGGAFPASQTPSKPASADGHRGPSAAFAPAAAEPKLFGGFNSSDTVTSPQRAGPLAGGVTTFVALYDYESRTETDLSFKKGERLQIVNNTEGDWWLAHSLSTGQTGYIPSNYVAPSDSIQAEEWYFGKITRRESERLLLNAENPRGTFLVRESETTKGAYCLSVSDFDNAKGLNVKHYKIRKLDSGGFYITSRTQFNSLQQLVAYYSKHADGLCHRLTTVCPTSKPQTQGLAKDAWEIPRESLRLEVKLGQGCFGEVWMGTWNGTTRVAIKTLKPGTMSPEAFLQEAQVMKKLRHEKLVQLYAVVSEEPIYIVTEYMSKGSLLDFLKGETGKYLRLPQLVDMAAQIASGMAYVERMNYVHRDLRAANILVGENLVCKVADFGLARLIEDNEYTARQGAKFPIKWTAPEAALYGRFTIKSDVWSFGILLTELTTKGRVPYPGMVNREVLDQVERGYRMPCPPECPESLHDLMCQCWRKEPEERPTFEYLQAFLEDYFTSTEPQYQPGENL
Tyrosine-protein kinase CSK (Homo sapiens), sequence (P41240 whole entry, looked up): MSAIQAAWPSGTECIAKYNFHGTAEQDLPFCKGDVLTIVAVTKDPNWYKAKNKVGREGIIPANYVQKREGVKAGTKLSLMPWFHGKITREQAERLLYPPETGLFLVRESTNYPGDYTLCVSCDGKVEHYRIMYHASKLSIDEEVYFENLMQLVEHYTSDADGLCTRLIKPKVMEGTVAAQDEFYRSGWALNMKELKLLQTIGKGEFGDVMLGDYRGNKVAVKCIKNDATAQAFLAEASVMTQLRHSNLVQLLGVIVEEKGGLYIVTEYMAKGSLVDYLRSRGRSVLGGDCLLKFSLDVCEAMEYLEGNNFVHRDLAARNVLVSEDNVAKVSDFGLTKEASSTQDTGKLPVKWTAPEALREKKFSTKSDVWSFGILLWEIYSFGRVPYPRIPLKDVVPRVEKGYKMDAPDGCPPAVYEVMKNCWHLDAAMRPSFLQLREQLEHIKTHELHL
Epidermal growth factor receptor, sequence (P00533 whole entry): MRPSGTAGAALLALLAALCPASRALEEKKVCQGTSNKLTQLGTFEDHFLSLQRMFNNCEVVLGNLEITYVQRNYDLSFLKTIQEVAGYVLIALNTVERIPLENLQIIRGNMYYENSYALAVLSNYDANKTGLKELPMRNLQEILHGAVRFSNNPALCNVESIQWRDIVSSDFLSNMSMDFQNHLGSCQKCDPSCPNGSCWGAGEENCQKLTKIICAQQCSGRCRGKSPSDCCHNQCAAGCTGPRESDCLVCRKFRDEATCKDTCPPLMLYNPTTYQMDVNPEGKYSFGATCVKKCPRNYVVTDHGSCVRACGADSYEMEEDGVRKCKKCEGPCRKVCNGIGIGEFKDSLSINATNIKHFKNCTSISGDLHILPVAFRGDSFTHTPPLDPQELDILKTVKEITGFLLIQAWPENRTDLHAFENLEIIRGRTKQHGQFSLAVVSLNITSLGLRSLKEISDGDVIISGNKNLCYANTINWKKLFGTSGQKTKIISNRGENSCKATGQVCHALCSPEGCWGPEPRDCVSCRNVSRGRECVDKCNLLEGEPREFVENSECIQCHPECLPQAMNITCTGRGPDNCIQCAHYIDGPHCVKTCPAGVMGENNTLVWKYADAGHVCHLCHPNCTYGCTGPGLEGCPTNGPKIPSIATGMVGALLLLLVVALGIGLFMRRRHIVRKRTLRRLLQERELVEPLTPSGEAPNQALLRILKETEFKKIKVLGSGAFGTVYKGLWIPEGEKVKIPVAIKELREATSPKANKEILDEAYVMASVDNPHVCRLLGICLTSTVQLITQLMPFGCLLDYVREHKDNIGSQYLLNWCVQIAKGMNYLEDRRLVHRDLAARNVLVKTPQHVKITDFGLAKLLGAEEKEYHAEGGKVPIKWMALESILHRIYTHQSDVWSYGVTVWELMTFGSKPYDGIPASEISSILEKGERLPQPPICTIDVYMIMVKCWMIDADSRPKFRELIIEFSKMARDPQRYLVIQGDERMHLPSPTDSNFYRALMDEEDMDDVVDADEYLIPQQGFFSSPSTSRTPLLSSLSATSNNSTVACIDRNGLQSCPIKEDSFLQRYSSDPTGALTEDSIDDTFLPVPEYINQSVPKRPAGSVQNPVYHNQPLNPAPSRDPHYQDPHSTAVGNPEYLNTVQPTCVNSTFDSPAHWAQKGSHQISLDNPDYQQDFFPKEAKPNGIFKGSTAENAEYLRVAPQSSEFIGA

SMILES | inhibition [1] | IC50 [2] | also measured
O=C(Cn1cc(-c2ccc(F)cc2)nn1)c1ccc(Cl)cc1 | < 10% | – | –
O=C(Cn1cc(-c2ccsc2)nn1)c1ccc(Cl)cc1 | – | > 150 µM | –
Cc1ccc(-c2cn(CC(=O)c3ccc(Cl)cc3)nn2)cc1 | – | 109 µM | –
COc1ccc(C(=O)Cn2cc(-c3ccccc3)nn2)cc1 | – | > 100 µM | –
CCCCc1cn(CC(=O)c2ccccc2)nn1 | < 10% | – | –
O=C(Cn1cc(-c2ccccc2)nn1)c1ccc(-c2cc3ccccc3oc2=O)cc1 | – | 89.5 µM | –
O=C1CCCCC1n1cc(-c2ccsc2)nn1 (configuration not stated) | < 10% | – | –
O=C(Cn1cc(-c2ccccn2)nn1)c1ccccc1 | < 10% | – | –
Cc1ccc(-c2cn(CC(=O)c3cc4ccccc4oc3=O)nn2)cc1 | – | > 150 µM | –
O=C(Cn1cc(-c2ccccc2)nn1)c1ccc(Cl)cc1 | – | 139 µM | –
O=C(Cn1cc(-c2ccc(F)cc2)nn1)c1ccc(Br)cc1 | < 10% | – | –
CC(=O)Cn1cc(-c2ccc(C)cc2)nn1 | – | > 150 µM | –
O=C1CCCC1n1cc(-c2ccccc2)nn1 (configuration not stated) | – | 106 µM | –
O=C1CCCC1n1cc(-c2ccsc2)nn1 (configuration not stated) | < 10% | – | –
O=C(/C=C/c1ccccc1)Cn1cc(-c2ccccc2)nn1 | – | > 100 µM | –
Cc1ccc(-c2cn(C3CCCCCC3=O)nn2)cc1 (configuration not stated) | – | 66.1 µM | –
O=C1CCCCC1n1cc(-c2ccc(F)cc2)nn1 (configuration not stated) | < 10% | – | –
O=C(Cn1cc(-c2ccccc2)nn1)c1cccs1 | – | 32.5 µM | –
Cc1cc(-c2cn(CC(=O)c3ccccc3)nn2)ccc1F | – | 81 µM | –
COC(=O)Cn1cc(-c2ccccc2)nn1 | – | > 100 µM | –

SMILES | inhibition [1] | IC50 [2] | also measured
Cc1ccc(-c2cn(C3CCCCC3=O)nn2)cc1 (configuration not stated) | – | 33.9 µM | IC50 [3]: > 100 µM; IC50 [4]: > 100 µM; IC50 [5]: > 100 µM
COc1ccc(-c2cn(C3CCCCC3=O)nn2)cc1 (configuration not stated) | < 10% | – | –
COc1ccc(-c2cn(CC(=O)c3ccc(Cl)cc3)nn2)cc1 | < 10% | – | –
Cc1ccc(-c2cn(C3CCCC3=O)nn2)cc1 (configuration not stated) | – | 62.1 µM | –
O=C1CCC(n2cc(-c3ccccc3)nn2)C1 (configuration not stated) | < 10% | – | –
Cc1ccc(-c2cn(CC(=O)c3ccccc3)nn2)cc1 | – | 41.6 µM | –
Cc1ccc(-c2cn(CC(=O)c3ccc(Br)cc3)nn2)cc1 | < 10% | – | –
O=C1CCCC1n1cc(-c2ccc(F)cc2)nn1 (configuration not stated) | < 10% | – | –
COc1ccc(C(=O)Cn2cc(-c3cccc(C)c3)nn2)cc1 | – | 72.8 µM | –
O=C1CCCCC1n1cc(-c2ccccc2)nn1 (configuration not stated) | – | 43.2 µM | –
O=C1CCCC(n2cc(-c3ccccc3)nn2)C1 (configuration not stated) | < 10% | – | –
CCNC(=O)Cn1cc(-c2ccccc2)nn1 | – | > 150 µM | –
O=C(Cn1cc(-c2ccccc2)nn1)c1ccccc1 | – | > 100 µM | –
O=C(Cn1cc(CCCCCl)nn1)c1ccc(Br)cc1 | – | > 100 µM | –
CCCCc1cn(CC(=O)c2ccc(Br)cc2)nn1 | < 10% | – | –
Cc1ccc(C(=O)Cn2cc(-c3ccc(C)cc3)nn2)cc1 | – | 49.8 µM | –
Cc1ccc(C(=O)Cn2cc(-c3ccc(F)c(C)c3)nn2)cc1 | – | 82.3 µM | –
CC(=O)Cn1cc(-c2ccccc2)nn1 | – | > 150 µM | –
COc1ccc(-c2cn(C3CCCC3=O)nn2)cc1 (configuration not stated) | < 10% | – | –
